From patent US6737383B1, “Herbicidal oxadiazolidines” (priority 1999, dated 2004)

What was measured:
crabgrass = test: Test B pre/postemergence crabgrass; format: in vivo, Digitaria sanguinalis
In short: (§1)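 Response is a visual 0-to-10 score relative to untreated plants, where 0 means no effect and 10 means complete control, taken twelve to sixteen days after application. Treatments went onto soil at planting and onto foliage of 1- to 4-leaf plants, using a surfactant-containing non-phytotoxic solvent.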

wheat = test: Test B pre/postemergence wheat; format: in vivo, Triticum aestivum
In short: as §1

wild oat = test: Test B pre/postemergence wild oat; format: in vivo, Avena fatua
In short: as §1

rice = test: Test B flood test rice; format: in vivo, Oryza sativa; settings: for Plant response rating, Rice (0 to 10 scale, 0 is no effect, 10 is complete control) / Rice plant response rating (0 to 10 scale, 0 is no effect, 10 is complete control): visual evaluation after twelve to sixteen days; for Rice plant response rating (0 to 10 scale, 0 is no effect, 10 is complete control): under heading Pre-emergence
In short: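 Plants were grown to the 2-leaf stage before treatment with test chemical, then held in a greenhouse for twelve to sixteen days. Injury was visually rated against untreated controls on a 0–10 scale, where 0 is no effect and 10 is complete control.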

[1] = Postemergence, Rate 250 g/ha, scale 0 to 10
[2] = Postemergence, Rate 500 g/ha, scale of 0 to 10 where 0 is no effect and 10 is complete control
[3] = Preemergence, Rate 62 g/ha, scale of 0 to 10 where 0 is no effect and 10 is complete control
[4] = Preemergence, Rate 125 g/ha, scale of 0 to 10 where 0 is no effect and 10 is complete control
[5] = Preemergence, Rate 250 g/ha, scale 0 to 10, 0 is no effect, 10 is complete control
[6] = Preemergence, Rate 500 g/ha, scale 0 to 10, 0 is no effect, 10 is complete control
[7] = Rate 62 g/ha, Postemergence, scale 0 to 10 (0 no effect, 10 complete control)
[8] = Rate 125 g/ha, Postemergence, scale 0 to 10, 0 is no effect, 10 is complete control
[9] = Rate 62 g/ha, flood test species, Pre-emergence
[10] = Rate 125 g/ha, flood test species
[11] = Rate 250 g/ha, Pre-emergence (flood test species), scale 0 to 10, 0 is no effect, 10 is complete control
[12] = Postemergence, Rate 62 g/ha, scale 0 to 10, 0 is no effect, 10 is complete control
[13] = Postemergence, Rate 250 g/ha, scale 0 to 10, 0 no effect, 10 complete control
[14] = Preemergence, Rate 62 g/ha, scale 0 to 10, 0 is no effect, 10 is complete control
[15] = Preemergence, Rate 125 g/ha, scale 0 to 10 (0 no effect, 10 complete control)
[16] = Preemergence, Rate 250 g/ha, scale of 0 to 10 where 0 is no effect and 10 is complete control
[17] = Preemergence, Rate 500 g/ha, scale 0 (no effect) to 10 (complete control)
[18] = Rate 125 g/ha, Postemergence, scale 0 to 10, 0 no effect, 10 complete control
[19] = Rate 500 g/ha, Postemergence, scale 0 to 10, 0 no effect, 10 complete control
[20] = Rate 125 g/ha, Postemergence section (flood test species), scale 0 to 10, 0 no effect, 10 complete control
[21] = flood test, listed under Postemergence, Rate 250 g/ha, scale 0 to 10, 0 no effect, 10 complete control
[22] = Preemergence, Rate 62 g/ha, scale 0 to 10 (0 no effect, 10 complete control)
[23] = Preemergence, Rate 125 g/ha, scale 0 to 10, 0 is no effect, 10 is complete control
[24] = Preemergence, Rate 500 g/ha, scale of 0 to 10 where 0 is no effect and 10 is complete control
[25] = Rate 250 g/ha, Postemergence, scale of 0 to 10 where 0 is no effect and 10 is complete control
[26] = Preemergence, Rate 31 g/ha, visual rating, scale 0 to 10 (0 no effect, 10 complete control)
[27] = Rate 500 g/ha, Postemergence section of Table B, 0 to 10 scale (0 no effect, 10 complete control)

In the case of `CC(C)N(C(=O)n1oc(=O)n(CC2=NOCC2)c1=O)c1ccc(F)cc1` [Compound 466], the “Crabgrass plant response rating” value (crabgrass; [1]) is reported as 9, the “Crabgrass plant response rating” value (crabgrass; [2]) is reported as 9 and the “Plant response rating, Crabgrass” value (crabgrass; [3]) is reported as 6. The “Plant response rating, Crabgrass” value (crabgrass; [4]) was 9, the “Crabgrass plant response rating” value (crabgrass; [5]) was 10 and the “Crabgrass plant response rating” value (crabgrass; [6]) was 10. For the same molecule, the “Crabgrass plant response rating” value (crabgrass; [7]) was 9, the “Crabgrass plant response rating” value (crabgrass; [8]) was 9 and the “Wheat plant response rating” value (wheat; [1]) was 0. The “Plant response rating, Wheat” value (wheat; [3]) was 0, the “Plant response rating, Wheat” value (wheat; [4]) was 0 and the “Wheat plant response rating” value (wheat; [5]) was 0. The “Wheat plant response rating” value (wheat; [6]) was 1, the “Wheat plant response rating” value (wheat; [7]) was 0 and the “Wheat plant response rating” value (wheat; [8]) was 0. For the same molecule, the “Wild oats plant response rating” value (wild oat; [1]) was 0, the “Plant response rating, Wild oats” value (wild oat; [3]) was 0 and the “Plant response rating, Wild oats” value (wild oat; [4]) was 0. For the same molecule, the “Wild oats plant response rating” value (wild oat; [5]) was 3, the “Wild oats plant response rating” value (wild oat; [6]) was 7 and the “Wild oats plant response rating” value (wild oat; [7]) was 0. The “Wild oats plant response rating” value (wild oat; [8]) was 0, the “Plant response rating, Rice (0 to 10 scale, 0 is no effect, 10 is complete control)” value (rice; [9]) was 0 and the “Rice plant response rating (0 to 10 scale, 0 is no effect, 10 is complete control)” value (rice; [10]) was 0. For the same molecule, the “Rice plant response rating” value (rice; [11]) was 0 and the “Rice plant response rating” value (rice; Rate 500 g/ha, Pre-emergence, flood test species, scale 0 to 10 (0 no effect, 10 complete control)) was 0.
`CCc1cccc(C)c1-n1c(=O)on(C(=O)N(c2ccc(F)cc2)C(C)C)c1=O` [Compound 52] was tested, and the “Crabgrass plant response rating” value (crabgrass; [12]) was 1, the “Crabgrass plant response rating” value (crabgrass; [13]) was 5 and the “Plant response rating, Crabgrass” value (crabgrass; [14]) was 0. The “Plant response rating, Crabgrass” value (crabgrass; [15]) was 1, the “Plant response rating, Crabgrass” value (crabgrass; [16]) was 6 and the “Crabgrass plant response rating” value (crabgrass; [17]) was 10. The “Crabgrass plant response rating” value (crabgrass; [18]) was 1, the “Crabgrass plant response rating” value (crabgrass; [19]) was 6 and the “Wheat plant response rating” value (wheat; [12]) was 0. For the same molecule, the “Wheat plant response rating” value (wheat; [13]) was 0, the “Plant response rating, Wheat” value (wheat; [14]) was 0 and the “Plant response rating, Wheat” value (wheat; [15]) was 0. For the same molecule, the “Plant response rating, Wheat” value (wheat; [16]) was 0, the “Wheat plant response rating” value (wheat; [17]) was 0 and the “Wheat plant response rating” value (wheat; [18]) was 0. For the same molecule, the “Wheat plant response rating” value (wheat; [19]) was 0, the “Wild oats plant response rating” value (wild oat; [12]) was 0 and the “Wild oats plant response rating” value (wild oat; [13]) was 1. For the same molecule, the “Plant response rating, Wild oats” value (wild oat; [15]) was 0, the “Plant response rating, Wild oats” value (wild oat; [16]) was 0 and the “Wild oats plant response rating” value (wild oat; [17]) was 1. For the same molecule, the “Wild oats plant response rating” value (wild oat; [18]) was 0, the “Wild oats plant response rating” value (wild oat; [19]) was 1 and the “Rice plant response rating” value (rice; [12]) was 0. For the same molecule, the “Rice plant response rating” value (rice; [20]) was 0, the “Rice plant response rating” value (rice; Rate 500 g/ha, listed under Postemergence (flood test species), scale 0 to 10, 0 no effect, 10 complete control) was 0 and the “Rice plant response rating” value (rice; [21]) was 0.
For `CC(C)N(C(=O)n1oc(=O)n(C[Si](C)(C)C)c1=O)c1ccccc1` [Compound 577], the “Crabgrass plant response rating” value (crabgrass; Postemergence, Rate 62 g/ha, scale of 0 to 10, 0 is no effect, 10 is complete control) was 0, the “Crabgrass plant response rating” value (crabgrass; Postemergence, Rate 125 g/ha, scale 0 to 10, 0 is no effect, 10 is complete control) was 0 and the “Plant response rating, Crabgrass” value (crabgrass; [2]) was 3. The “Crabgrass plant response rating” value (crabgrass; [22]) was 7, the “Crabgrass plant response rating” value (crabgrass; [23]) was 9 and the “Crabgrass plant response rating (0 to 10 scale)” value (crabgrass; Preemergence, Rate 250 g/ha) was 9. The “Crabgrass plant response rating” value (crabgrass; [24]) was 10, the “Plant response rating, Crabgrass” value (crabgrass; [25]) was 3 and the “Plant response rating, Wheat” value (wheat; [2]) was 0. The “Wheat plant response rating” value (wheat; [22]) was 0, the “Wheat plant response rating” value (wheat; [23]) was 0 and the “Wheat plant response rating (0 to 10 scale)” value (wheat; Preemergence, Rate 250 g/ha) was 0. The “Wheat plant response rating” value (wheat; [24]) was 0, the “Plant response rating, Wheat” value (wheat; [25]) was 0 and the “Plant response rating, Wild oats” value (wild oat; [2]) was 0. For the same molecule, the “Wild oats plant response rating” value (wild oat; [22]) was 0, the “Wild oats plant response rating” value (wild oat; [23]) was 0 and the “Wild oats plant response rating (0 to 10 scale)” value (wild oat; Preemergence, Rate 250 g/ha) was 0. For the same molecule, the “Wild oats plant response rating” value (wild oat; [24]) was 0, the “Plant response rating, Wild oats” value (wild oat; [25]) was 0 and the “Plant response rating, Rice (0 to 10 scale, 0 is no effect, 10 is complete control)” value (rice; [9]) was 0. The “Rice plant response rating (0 to 10 scale, 0 is no effect, 10 is complete control)” value (rice; [10]) was 0, the “Rice plant response rating” value (rice; [11]) was 0 and the “Rice plant response rating” value (rice; Rate 500 g/ha, Pre-emergence section of Table B, 0 to 10 scale (0 no effect, 10 complete control)) was 0.
In the case of `CCN(C(=O)n1oc(=O)n(-c2c(C)cccc2C)c1=O)C1CCCCC1` [Compound 27], the “Crabgrass plant response rating” value (crabgrass; [12]) is reported as 0, the “Crabgrass plant response rating” value (crabgrass; [13]) is reported as 0 and the “Crabgrass plant response rating” value (crabgrass; [26]) is reported as 0. The “Plant response rating, Crabgrass” value (crabgrass; [14]) was 0, the “Plant response rating, Crabgrass” value (crabgrass; [15]) was 0 and the “Plant response rating, Crabgrass” value (crabgrass; [16]) was 0. For the same molecule, the “Crabgrass plant response rating” value (crabgrass; Rate 31 g/ha, Postemergence, scale 0 to 10) was 0, the “Crabgrass plant response rating” value (crabgrass; [18]) was 0 and the “Wheat plant response rating” value (wheat; [12]) was 0. For the same molecule, the “Wheat plant response rating” value (wheat; [13]) was 0, the “Wheat plant response rating” value (wheat; [26]) was 0 and the “Plant response rating, Wheat” value (wheat; [14]) was 0. For the same molecule, the “Plant response rating, Wheat” value (wheat; [15]) was 0, the “Plant response rating, Wheat” value (wheat; [16]) was 0 and the “Wheat plant response rating” value (wheat; [18]) was 0. For the same molecule, the “Wild oats plant response rating” value (wild oat; [12]) was 0, the “Wild oats plant response rating” value (wild oat; [13]) was 0 and the “Wild oats plant response rating” value (wild oat; [26]) was 0. For the same molecule, the “Plant response rating, Wild oats” value (wild oat; [15]) was 0, the “Plant response rating, Wild oats” value (wild oat; [16]) was 0 and the “Wild oats plant response rating” value (wild oat; [18]) was 0. The “Rice plant response rating” value (rice; [12]) was 0, the “Rice plant response rating” value (rice; [20]) was 0 and the “Rice plant response rating” value (rice; [27]) was 2. For the same molecule, the “Rice plant response rating” value (rice; [21]) was 0.
With `Cc1c(Cl)cccc1-n1c(=O)on(C(=O)N(c2ccc(F)cc2)C(C)C)c1=O` [Compound 21] the “Crabgrass plant response rating” value (crabgrass; [12]) was 0, the “Crabgrass plant response rating” value (crabgrass; [13]) was 0 and the “Plant response rating, Crabgrass” value (crabgrass; [14]) was 4. For the same molecule, the “Plant response rating, Crabgrass” value (crabgrass; [15]) was 7, the “Plant response rating, Crabgrass” value (crabgrass; [16]) was 7 and the “Crabgrass plant response rating” value (crabgrass; [17]) was 7. The “Crabgrass plant response rating” value (crabgrass; [18]) was 0, the “Crabgrass plant response rating” value (crabgrass; Rate 500 g/ha, Postemergence, 0 to 10 scale (0 no effect, 10 complete control)) was 2 and the “Wheat plant response rating” value (wheat; [12]) was 0. The “Wheat plant response rating” value (wheat; [13]) was 0, the “Plant response rating, Wheat” value (wheat; [14]) was 0 and the “Plant response rating, Wheat” value (wheat; [15]) was 0. The “Plant response rating, Wheat” value (wheat; [16]) was 0, the “Wheat plant response rating” value (wheat; [17]) was 0 and the “Wheat plant response rating” value (wheat; [18]) was 0. For the same molecule, the “Wild oats plant response rating” value (wild oat; [12]) was 0, the “Wild oats plant response rating” value (wild oat; [13]) was 0 and the “Plant response rating, Wild oats” value (wild oat; [15]) was 0. The “Plant response rating, Wild oats” value (wild oat; [16]) was 0, the “Wild oats plant response rating” value (wild oat; [17]) was 0 and the “Wild oats plant response rating” value (wild oat; [18]) was 0. For the same molecule, the “Rice plant response rating” value (rice; [12]) was 0, the “Rice plant response rating” value (rice; [20]) was 0 and the “Rice plant response rating” value (rice; [27]) was 0. The “Rice plant response rating” value (rice; [21]) was 0.
